Measured values published in US20250382279A1, “COMPOUNDS AND METHODS FOR YAP/TEAD MODULATION AND INDICATIONS THEREFOR” (OPNA BIO SA, priority 2023, published 2025).

System: TEAD-dependent transcription
Test: Inhibitor activity against TEAD-dependent transcription in a cell-based reporter assay (MSTO-211H+12XGTIIC luciferase)
Settings: Homo sapiens; MSTO-211H+12XGTIIC cell line, 24 hours compound incubation, luminescence normalized to cell viability fluorescence; read-out: MSTO-211H GMean IC50 (uM) Cell Assay Reporter Cell Variant: TEAD
Source text: Determine Inhibitor Activity Against TEAD-Dependent Transcription in a Cell-Based Reporter Assay
The human mesothelioma cell line MSTO-211H was stably transfected with a pGL4.21 plasmid containing a synthetic promoter with 12 copies of the GTIIC TEAD response element that drives the expression of a luciferase reporter gene^1 using Lipofectamine transfection reagent (Thermno Fisher). Transfected cells were selected using puromycin and single cell clones expressing this construct (referred to as MSTO-211H+12XGTIIC) were generated by limiting dilution. MSTO-211H cells was characterized by genetic alterations in key components of the Hippo pathway^2, resulting in up-regulation of YAP/TEAD-mediated transcription. […] To evaluate TEAD inhibitors, the MSTO-211H+12XGTIIC cell line was seeded in a 96-well plate in 50 μL of culture media at 1×10^4 cells per well and incubated at 37° C. overnight. Serial dilutions of compounds (in total volume of 50 μL of culture media) were added to the cells and incubated at 37° C. for 24 hours. Each plate included cells treated with DMSO as high controls and cells treated with 20 μM of the reference compound K-975 (a known TEAD inhibitor)^3 as low controls. Cell viability was assayed by the addition of 25 μL of CellTiter-Fluor reagent (Promega) followed by a 30-minute incubation at 37° C. and quantification of the fluorescence signal (Ex400/Em505). Subsequently, luciferase expression was assayed by the addition of 25 μL of ONE-Glo reagent (Promega) followed by a 10-minute incubation at room temperature and quantification of the luminescence signal. The luminescence signal was normalized to the fluorescence signal to correct for any loss in cell viability over the 24-hour compound incubation period. The percentage of inhibition of normalized luminescence signal, indicative of compound-mediated inhibition of TEAD-dependent transcription, at individual compound concentrations relative to high and low controls was calculated. The data were analyzed by using nonlinear regression to generate IC50 values for individual compounds.

SMILES	IC50 [µM]
O=C1c2cc(Oc3ccc(C(F)(F)F)cc3)ccc2CCN1c1ccnc(S(=O)(=O)C(F)(F)F)n1 [O-0044, 7-(4-(trifluoromethyl)phenoxy)-2-(2-((trifluoromethyl)sulfonyl)pyrimidin-4-yl)-3,4-dihydroisoquinolin-1(2H)-one]	0.001 to 10
O=C1c2cc(Oc3ccc(C(F)(F)F)cc3)ccc2CCN1c1ccc2nc(C(F)(F)F)[nH]c2c1 [O-0045, 2-(2-(trifluoromethyl)-1H-benzo[d]imidazol-6-yl)-7-(4-(trifluoromethyl)phenoxy)-3,4-dihydroisoquinolin-1(2H)-one]	0.001 to 10
O=C1c2cc(Oc3ccc(C(F)(F)F)cc3)ccc2CCN1c1ccc2nc(C(F)(F)F)sc2c1 [O-0046, 2-(2-(trifluoromethyl)benzo[d]thiazol-6-yl)-7-(4-(trifluoromethyl)phenoxy)-3,4-dihydroisoquinolin-1(2H)-one]	0.001 to 10
C=CC(=O)Nc1cncc(N2CCc3ccc(Oc4ccc(C(F)(F)F)cc4)cc3C2=O)c1 [O-0108, N-(5-(1-oxo-7-(4-(trifluoromethyl)phenoxy)-3,4-dihydroisoquinolin-2(1H)-yl)pyridin-3-yl)acrylamide]	0.001 to 10
Nc1cncc(N2CCc3ccc(Oc4ccc(C(F)(F)F)cc4)cc3C2=O)c1 [O-0110, 2-(5-aminopyridin-3-yl)-7-(4-(trifluoromethyl)phenoxy)-3,4-dihydroisoquinolin-1(2H)-one]	0.001 to 10
Nc1cccc(N2CCc3ccc(Oc4ccc(C(F)(F)F)cc4)cc3C2=O)n1 [O-0111, 2-(6-aminopyridin-2-yl)-7-(4-(trifluoromethyl)phenoxy)-3,4-dihydroisoquinolin-1(2H)-one]	0.001 to 10
O=C1c2cccc(Oc3ccc(C(F)(F)F)cc3)c2CCN1c1ccnc([S+]([O-])C(F)(F)F)n1 (stereo not shown) [O-0112, 5-(4-(trifluoromethyl)phenoxy)-2-(2-((trifluoromethyl)sulfinyl)pyrimidin-4-yl)-3,4-dihydroisoquinolin-1(2H)-one]	0.001 to 10
